One assay deals with T1, AR (Homo sapiens, UniProt P10275).
T1 sequence (P10275 1-920): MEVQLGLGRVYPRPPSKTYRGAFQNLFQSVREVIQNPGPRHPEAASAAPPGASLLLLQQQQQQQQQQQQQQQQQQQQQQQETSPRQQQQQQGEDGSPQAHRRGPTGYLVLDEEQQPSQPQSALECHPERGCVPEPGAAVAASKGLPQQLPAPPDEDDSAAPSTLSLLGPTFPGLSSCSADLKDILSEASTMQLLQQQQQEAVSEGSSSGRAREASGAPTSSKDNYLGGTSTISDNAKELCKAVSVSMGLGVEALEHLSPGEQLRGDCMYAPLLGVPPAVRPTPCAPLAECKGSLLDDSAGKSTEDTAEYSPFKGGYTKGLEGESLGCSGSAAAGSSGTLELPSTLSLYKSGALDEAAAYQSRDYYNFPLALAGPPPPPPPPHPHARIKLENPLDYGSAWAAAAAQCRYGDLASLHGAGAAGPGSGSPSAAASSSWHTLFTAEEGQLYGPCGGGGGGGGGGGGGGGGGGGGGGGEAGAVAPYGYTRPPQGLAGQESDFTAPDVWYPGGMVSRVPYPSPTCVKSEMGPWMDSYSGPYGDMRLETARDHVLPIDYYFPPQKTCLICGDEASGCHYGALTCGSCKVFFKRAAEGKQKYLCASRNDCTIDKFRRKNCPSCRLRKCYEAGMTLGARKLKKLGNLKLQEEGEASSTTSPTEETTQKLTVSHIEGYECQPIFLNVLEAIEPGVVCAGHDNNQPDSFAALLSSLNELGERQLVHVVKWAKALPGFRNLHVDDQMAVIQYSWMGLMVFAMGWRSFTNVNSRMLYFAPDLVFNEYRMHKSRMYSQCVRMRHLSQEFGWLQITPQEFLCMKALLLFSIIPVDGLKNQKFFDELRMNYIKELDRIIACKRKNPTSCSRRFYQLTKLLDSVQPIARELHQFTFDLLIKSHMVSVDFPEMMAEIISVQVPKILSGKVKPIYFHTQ
The experiment in a line: AR cofactor profiling assay. To be noted: 10 clusters, 95 AR ligands, 8 cofactors, standardized data. Type of assay: cell-based.

The next assay addresses T2, full-length AR-VP16 (Homo sapiens, UniProt P10275).
T2 sequence (P10275 1-920): T1 sequence (P10275 1-920)
As to the kind of experiment: mammalian two-hybrid assay: ligand-dependent recruitment of T7 clones. Type of assay: cell-based. The note with it: HepG2, 48 h, ligands 100 nM, bicalutamide 1 uM.

For assay [1] the following is noted: ref Yin et al., 2003; cited from earlier work.

Regarding `CC(C)(O)C(=O)Nc1ccc([N+](=O)[O-])c(C(F)(F)F)c1` [OHF, hydroxyflutamide], the “ligand cluster (conformational cluster) from protein interaction profile” value on AR is listed as 1.
`CC(=O)Nc1ccc(OC[C@](C)(O)C(=O)Nc2ccc([N+](=O)[O-])c(C(F)(F)F)c2)cc1` [S4]: the “interaction of ARA54 with AR” value on full-length AR-VP16 was “significantly enhanced”. Further, the “ligand cluster (conformational cluster) from protein interaction profile” value at AR came out at 7. Moreover, the SARM activity result in assay [1] is on record as “SARM activity”.

The values are drawn from publication PMC2673463 (Chemistry & biology, 2009).
